Results from the RepoRT retention time repository (doi:10.1021/acs.analchem.2c02893).

Assay: RP, Thermo Scientific Acclaim RSLC 120 C18, 100 × 2.1 mm, 2.2 µm, 30 °C, 0.2 mL/min, estimated dead time 1.1 min; A: 90% water + 10% methanol + 0.01% formic acid + 5 mM ammonium formate, pH 3.61; B: methanol + 0.01% formic acid + 5 mM ammonium formate, pH 3.61; gradient (min/%B) 0/1 1/1 2/39 13/99.9 15/99.9 15.1/1 20.1/1
Settings: stereoisomer not certain

| Compound | LC retention time [min] |
| --- | --- |
| NC(=O)N1c2ccccc2C=Cc2ccccc21 [Carbamazepine] | 7.36 |
| Nc1c(Cl)cc([N+](=O)[O-])cc1Cl [Dicloran] | 8.84 |
| COc1ccc(CCNCCCC(C#N)(c2ccc(OC)c(OC)c2)C(C)C)cc1OC (stereo not drawn) [Verapamil-Nor] | 6.96 |
| CON(C)C(=O)Nc1ccc(Cl)c(Cl)c1 [Linuron] | 9.3 |
| Cc1ncsc1CCCl [Clomethiazole] | 6.69 |
| CN1CCC23c4c5ccc(O)c4OC2C(=O)CCC3(O)C1C5 (stereo not drawn) [Oxymorphone] | 2.75 |
| CCC(C)(CC)c1cc(NC(=O)c2c(OC)cccc2OC)on1 [Isoxaben] | 9.42 |
| c1ccc(C(CCN2CCCCC2)c2ccccc2)cc1 [Fenpiprane] | 6.82 |
| CCNc1nc(NC(C)C)[nH]c(=O)n1 [Atrazine-2-hydroxy] | 5.03 |
| NNCCc1ccccc1 [Phenelzine] | 3.71 |
| Clc1ccccc1CN1CCc2sccc2C1 [Ticlopidine] | 9.25 |
| O=C1C2CC=CCC2C(=O)N1SC(Cl)(Cl)Cl (stereo not drawn) [Captan] | 8.77 |
| CC[N+](CC)(CC(=O)Nc1c(C)cccc1C)Cc1ccccc1 [Denatonium] | 12.3 |
| O=C1CN=C(c2ccccc2Cl)c2cc([N+](=O)[O-])ccc2N1 [Clonazepam] | 7.61 |
| CCCCC(O)(Cn1cncn1)c1ccc(Cl)cc1Cl (stereo not drawn) [Hexaconazole] | 11.2 |
| COc1ccc(CNC(=O)c2cc([N+](=O)[O-])ccc2NC(C)CO)cc1OC (stereo not drawn) [Benzamidenafil] | 7.8 |
| CCN(CC)C(=O)N1CCN(C)CC1 [Carbamazine-Diethyl] | 3.16 |
| CNC(C)Cc1cccc(F)c1 (stereo not drawn) [Amphetamine-3-F-Methyl (3-F-methamphetamine)] | 4.39 |
| O=C(OC1CN2CCC1CC2)N1CCc2ccccc2C1c1ccccc1 (stereo not drawn) [Solifenacin] | 7.95 |
| CNC(=O)C(C)SCCSP(=O)(OC)OC (stereo not drawn) [Vamidothion] | 5.02 |
| Cc1nnc2n1-c1ccc(Br)cc1C(c1ccccc1F)=NC2 [Flubromazolam] | 8.04 |
| CCOC(=O)CC(O)(CC(=O)OCC)C(=O)OCC [Triethylcitrate] | 6.94 |

| Compound | LC retention time [min] |
| --- | --- |
| Cc1ccc(S(=O)(=O)NC(=O)NC2C3CCC(C)(C2O)C3(C)C)cc1 (stereo not drawn) [Glibornuride] | 9.79 |
| CCCCOc1ccc(C(=O)OCCN(CC)CC)cc1 [Butoxycaine] | 11.3 |
| CCCc1nn(C)c2c(=O)[nH]c(-c3cc(C(=O)CN4CCN(CC=Cc5ccccc5)CC4)ccc3OCC)nc12 [Cinnamyldenafil] | 9.28 |
| CCCCC(CC)CN1C(=O)C2C3C=CC(C3)C2C1=O (stereo not drawn) [MGK-264] | 11.6 |
| CCOP(=S)(OCC)Oc1ccc(S(C)(=O)=O)cc1 [Fensulfothion-sulfon] | 8.48 |
| O=c1[nH]c2ccccc2n1C1CCN(CCCC(c2ccc(F)cc2)c2ccc(F)cc2)CC1 [Pimozide] | 8.73 |
| O=C1CN=C(c2ccccc2F)c2cc(Cl)ccc2N1 [Flurazepam-Desalkyl] | 8.74 |
| C=CCOC(=O)C(C)(C)OC(=O)c1cc(-n2c(=O)cc(C(F)(F)F)n(C)c2=O)ccc1Cl [Butafenacil] | 9.89 |
| CCCC(Cc1ccccc1)N1CCCC1 (stereo not drawn) [Prolintane] | 5.56 |
| CN(C)C(=O)Nc1ccc(Cl)c(Cl)c1 [Diuron] | 8.64 |
| CNC(C)Cc1ccc(O)c(OC)c1 (stereo not drawn) [HMMA] | 3.19 |
| CCOP(=O)(NC(C)C)Oc1ccc(SC)c(C)c1 (stereo not drawn) [Fenamiphos] | 10.4 |
| OCc1cc(C(O)CNCCCCCCOCCCCc2ccccc2)ccc1O (stereo not drawn) [Salmeterol] | 8.83 |
| O=[N+]([O-])c1cc(C(F)(F)F)c(Cl)c([N+](=O)[O-])c1Nc1ncc(C(F)(F)F)cc1Cl [Fluazinam] | 12.3 |
| CCC(C)C(=O)OC1CC(O)C=C2C=CC(C)C(CCC(O)CC(O)CC(=O)O)C21 (stereo not drawn) [Pravastatin] | 8.36 |
| CCN(CC)CCNC(=O)c1cc(Cl)c(N)cc1OC [Metoclopramide] | 4.36 |
| CN(C)CCc1c[nH]c2ccc(Cn3cncn3)cc12 [Rizatriptan] | 3.49 |
| CC(=O)OCC(=O)C1(O)C(C)CC2C3CCC4=CC(=O)C=CC4(C)C3(F)C(O)CC21C (stereo not drawn) [Betamethasone acetate] | 9.37 |
| CCCCCC(=O)c1ccc(O)cc1O [Caproylresorcinol] | 10.4 |
| CN(CCO)CC(O)Cn1cnc2c1c(=O)n(C)c(=O)n2C (stereo not drawn) [Xanthinol] | 2.99 |
| NC(=O)C(CCN1CCCCC1)(c1ccccc1)c1ccccc1 [Fenpipramide] | 5.19 |
| CCCCCCCC(C)(C)c1ccc(C2CCCC(O)C2)c(O)c1 (stereo not drawn) [CP 47-497-C8] | 13.5 |

| Compound | LC retention time [min] |
| --- | --- |
| CCCCn1cc(C(=O)c2cccc3ccc(C)cc23)c2ccccc21 [JWH-073-2-Methyl] | 12.3 |
| C=C(c1ccc(C(=O)O)cc1)c1cc2c(cc1C)C(C)(C)CCC2(C)C [Bexarotene] | 14.1 |
| O=c1[nH]c2ccccc2n1CCCN1CCC(n2c(=O)[nH]c3cc(Cl)ccc32)CC1 [Domperidone] | 6.27 |
| CCOP(=S)(OCC)Oc1nc(Cl)n(C(C)C)n1 [Isazophos] | 9.87 |
| CNC(=O)N(C)c1nnc(C(C)(C)C)s1 [Tebuthiuron] | 7.25 |
| COc1ccc2c(c1)c(CC(=O)O)c(C)n2C(=O)c1ccc(Cl)cc1 [Indomethacin] | 10.3 |
| CCCCCCCCCCCCN(C)C [N,N-Dimethyldodecylamine] | 10.4 |
| CC(Cn1cnc2c(N)ncnc21)OCP(=O)(O)O (stereo not drawn) [Tenofovir] | 2.69 |
| CC1(C)SC2C(NC(=O)C(N)c3ccccc3)C(=O)N2C1C(=O)O (stereo not drawn) [Ampicillin] | 4.21 |
| COP(=S)(OC)Oc1cc(Cl)c(Cl)cc1Cl [Fenclofos.Ronnel] | 12.5 |
| CCCC(C)(COC(N)=O)COC(=O)NC(C)C (stereo not drawn) [Carisoprodol] | 7.99 |
| O=C(c1ccccc1I)c1cn(CCCCCF)c2ccccc12 [AM-694] | 10.5 |
| CN(C)CCCN1c2ccccc2Sc2ccc(Cl)cc21 [Chlorpromazine] | 8.89 |
| CCCCNC(=O)OCC#CI [3-Iodopropynyl butylcarbamate] | 8.05 |
| CC(=O)Nc1cc(NS(=O)(=O)C(F)(F)F)c(C)cc1C [Mefluidide] | 6.85 |
| CCCCCn1c(C)c(C(=O)c2cccc3ccccc23)c2ccccc21 [JWH-007] | 12.6 |
| CCOP(=O)(SC(C)CC)N1CCSC1=O (stereo not drawn) [Fosthiazate] | 7.73 |
| O=C1Nc2ccc(Cl)cc2C(C#CC2CC2)(C(F)(F)F)O1 (stereo not drawn) [Efavirenz] | 10.7 |
| O=C(CCCN1CCC(O)(c2ccc(Br)cc2)CC1)c1ccc(F)cc1 [Bromperidol] | 7.12 |
| COC(=O)C(Cc1ccccc1)NC(=O)C(CC(=O)O)NCCC(C)(C)C (stereo not drawn) [Neotam] | 8.83 |
| COc1ccc(NC(=O)N(C)C)cc1Cl [Metoxuron] | 6.17 |
| CC(C)(C)NCC(O)c1ccccc1Cl (stereo not drawn) [Tulobuterol] | 5.17 |

| Compound | LC retention time [min] |
| --- | --- |
| COCCCOc1ccnc(CS(=O)c2nc3ccccc3[nH]2)c1C (stereo not drawn) [Rabeprazole] | 7.52 |
| CON=C(C(=O)NC1C(=O)N2C(C(=O)[O-])=C(C[n+]3cccc4c3CCCC4)CSC12)c1csc(N)n1 (stereo not drawn) [Cefquinome] | 3.76 |
| CCCOCCN(C(=O)CCl)c1c(CC)cccc1CC [Pretilachlor] | 11.8 |
| O=C(NC(=O)c1c(F)cccc1F)Nc1cc(Cl)c(OC(F)(F)C(F)F)c(Cl)c1 [Hexaflumuron] | 11.8 |
| O=C1CN=C(c2ccccc2)c2cc(Cl)ccc2N1CC1CC1 [Prazepam] | 10.6 |
| COc1cc(C=C2CCCC(=Cc3ccc(O)c(OC)c3)C2=O)ccc1O [Cyclovalone] | 9.59 |
| Cc1ncc([N+](=O)[O-])n1C [Dimetridazole] | 4.27 |
| CSc1ccc2c(c1)N(CCC1CCCCN1C)c1ccccc1S2=O (stereo not drawn) [Thioridazine-5-sulfoxide] | 6.64 |
| CCCOP(=O)(OCCC)Oc1ccc(SC)cc1 [Propaphos] | 10.8 |
| Cc1cccc2n[nH]nc12 [Benzotriazole -4-Me] | 5.83 |
| CC12C=CC(=O)C=C1CCC1C2C(O)CC2(C)C1CCC2(O)C(=O)CO (stereo not drawn) [Prednisolone] | 7.84 |
| CC1CCN(CCCC(=O)c2ccc(F)cc2)CC1 [Melperone] | 5.21 |
| N#CN=C1SCCN1Cc1ccc(Cl)nc1 [Thiacloprid] | 5.62 |
| CN(C)CCC(c1ccccc1)c1ccccn1 (stereo not drawn) [Pheniramine] | 4.98 |
| CCOC(=O)C(CCc1ccccc1)NC(C)C(=O)N1Cc2ccccc2CC1C(=O)O (stereo not drawn) [Quinapril] | 9.03 |
| Clc1ccc(CSC(Cn2cncn2)=Nc2ccc(Cl)cc2Cl)cc1 [Imibenconazole] | 12.4 |
| CNCC12CCC(c3ccccc31)c1ccccc12 [Benzoctamine] | 6.52 |
| CCC(=O)C(CC(C)N(C)C)(c1ccccc1)c1ccccc1 (stereo not drawn) [Methadone] | 8.04 |
| CC(C)(c1ccc(OCC2CO2)cc1)c1ccc(OCC2CO2)cc1 (stereo not drawn) [Bisphenol A diglycidyl ether] | 10.8 |
| CC(O)Cn1cnc2c1c(=O)n(C)c(=O)n2C (stereo not drawn) [Proxyphylline] | 4.34 |
| CCN(CC)C(=O)C1C=C2c3cccc4[nH]cc(c34)CC2NC1 (stereo not drawn) [LSD-Nor] | 5.56 |
| CCN(CC)CCOC(=O)C(c1ccccc1)C1CCCCC1 (stereo not drawn) [Drofenine] | 9.19 |
